From publication PMC3824154 (Angewandte Chemie (International ed. in English), 2013)

Target: T1, MBP-RebF (Lentzea aerocolonigenes, UniProt Q8KI76)
T1 sequence (Q8KI76 1-170): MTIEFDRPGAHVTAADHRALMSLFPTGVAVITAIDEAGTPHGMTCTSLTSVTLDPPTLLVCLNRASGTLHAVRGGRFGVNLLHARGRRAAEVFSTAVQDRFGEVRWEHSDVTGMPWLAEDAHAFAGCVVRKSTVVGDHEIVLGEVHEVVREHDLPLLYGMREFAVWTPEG
Test: FAD reduction activity
Format: biochemical

Compound	FAD reduction activity (turnover) (NADH as electron donor)	FAD reduction activity (turnover) (FAD as electron acceptor)
Cc1cc2nc3c(=O)[nH]c(=O)nc-3n(C[C@H](O)[C@H](O)[C@H](O)COP(=O)(O)OP(=O)(O)OC[C@H]3O[C@@H](n4cnc5c(N)ncnc54)[C@H](O)[C@@H]3O)c2cc1C [FAD]	retained high activity for the NAD-dependent reduction of FAD to FADH2	
NC(=O)C1=CN([C@@H]2O[C@H](COP(=O)(O)OP(=O)(O)OC[C@H]3O[C@@H](n4cnc5c(N)ncnc54)[C@H](O)[C@@H]3O)[C@@H](O)[C@H]2O)C=CC1 [NADH]		MBP-RebF, which uses NADH to reduce FAD to FADH2
